Experimental data as given in ChEMBL document CHEMBL4417621, “Methods to identify tas2r modulators” (2013).
Calls of active or inactive are those of the source. The calls are words filed in the database; no cut-off is given here.

Assays:
[1] = target: T1, Taste receptor type 2 member 1 (Homo sapiens) (UniProt Q9NYW7); experiment: Activation of full-length human TAS2R1 expressed in HEK293T/Galpha16-gustducin 44 cells assessed as effect on calcium flux by measuring deltaF/F0 ratio at 100 mM by Fluo-4 dye based FLIPR assay; format: functional, cell-based
T1 sequence (whole entry): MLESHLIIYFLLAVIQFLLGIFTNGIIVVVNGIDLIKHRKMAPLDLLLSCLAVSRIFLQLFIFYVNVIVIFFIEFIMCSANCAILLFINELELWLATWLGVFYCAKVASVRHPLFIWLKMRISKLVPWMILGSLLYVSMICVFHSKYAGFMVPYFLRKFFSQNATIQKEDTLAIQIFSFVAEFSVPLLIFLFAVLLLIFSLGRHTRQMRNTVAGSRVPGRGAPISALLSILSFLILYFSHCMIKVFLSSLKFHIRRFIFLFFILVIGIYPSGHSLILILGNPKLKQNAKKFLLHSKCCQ

[2] = target: T2, Taste receptor type 2 member 10 (Homo sapiens) (UniProt Q9NYW0); experiment: Activation of full-length human TAS2R10 expressed in HEK293T/Galpha16-gustducin 44 cells assessed as effect on calcium flux by measuring deltaF/F0 ratio at 0.7813 mM by Fluo-4 dye based FLIPR assay; format: functional, cell-based
T2 sequence (whole entry): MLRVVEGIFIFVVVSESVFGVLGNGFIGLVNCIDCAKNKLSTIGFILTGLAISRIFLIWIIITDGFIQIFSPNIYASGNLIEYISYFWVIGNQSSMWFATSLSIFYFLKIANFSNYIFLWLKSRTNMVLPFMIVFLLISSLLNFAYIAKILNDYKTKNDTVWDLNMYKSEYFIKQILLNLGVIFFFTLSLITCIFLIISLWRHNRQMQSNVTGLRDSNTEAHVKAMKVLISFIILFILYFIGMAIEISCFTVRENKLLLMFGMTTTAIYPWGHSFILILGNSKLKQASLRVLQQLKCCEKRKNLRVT

[3] = target: T3, Taste receptor type 2 member 31 (Homo sapiens) (UniProt P59538); experiment: Activation of full-length human TAS2R44 expressed in HEK293T/Galpha16-gustducin 44 cells assessed as effect on calcium flux by measuring deltaF/F0 ratio at 3.125 mM by Fluo-4 dye based FLIPR assay (reference value: […] +/ - 0.001); format: functional, cell-based
T3 sequence (whole entry): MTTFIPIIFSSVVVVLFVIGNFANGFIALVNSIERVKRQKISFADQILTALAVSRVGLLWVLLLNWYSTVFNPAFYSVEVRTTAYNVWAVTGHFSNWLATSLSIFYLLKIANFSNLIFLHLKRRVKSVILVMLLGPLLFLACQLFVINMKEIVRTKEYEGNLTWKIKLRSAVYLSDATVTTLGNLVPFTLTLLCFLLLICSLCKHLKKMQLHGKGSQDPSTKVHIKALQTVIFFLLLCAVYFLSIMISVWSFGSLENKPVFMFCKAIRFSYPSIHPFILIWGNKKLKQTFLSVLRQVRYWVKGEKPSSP

[4] = target: T1, Taste receptor type 2 member 1 (Homo sapiens); experiment: Activation of full-length human TAS2R1 expressed in HEK293T/Galpha16-gustducin 44 cells assessed as effect on calcium flux by measuring deltaF/F0 ratio at 1.5625 mM by Fluo-4 dye based FLIPR assay; format: functional, cell-based
[5] = target: T4, Taste receptor type 2 member 46 (Homo sapiens) (UniProt P59540); experiment: Activation of full-length human TAS2R46 expressed in HEK293T/Galpha16-gustducin 44 cells assessed as effect on calcium flux by measuring deltaF/F0 ratio at 25 mM by Fluo-4 dye based FLIPR assay; format: functional, cell-based
T4 sequence (whole entry): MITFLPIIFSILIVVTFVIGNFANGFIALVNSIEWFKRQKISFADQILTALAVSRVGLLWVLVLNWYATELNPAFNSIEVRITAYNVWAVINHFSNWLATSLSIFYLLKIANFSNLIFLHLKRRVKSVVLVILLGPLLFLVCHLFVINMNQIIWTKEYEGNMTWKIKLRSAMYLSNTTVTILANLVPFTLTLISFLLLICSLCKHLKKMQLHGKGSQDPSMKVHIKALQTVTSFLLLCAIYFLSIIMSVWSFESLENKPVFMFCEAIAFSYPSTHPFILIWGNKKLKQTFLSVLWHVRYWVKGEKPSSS

[6] = target: T1, Taste receptor type 2 member 1 (Homo sapiens); experiment: Activation of full-length human TAS2R1 expressed in HEK293T/Galpha16-gustducin 44 cells assessed as effect on calcium flux by measuring deltaF/F0 ratio at 6.25 mM by Fluo-4 dye based FLIPR assay; format: functional, cell-based
[7] = target: T1, Taste receptor type 2 member 1 (Homo sapiens); experiment: Activation of full-length human TAS2R1 expressed in HEK293T/Galpha16-gustducin 44 cells assessed as effect on calcium flux by measuring deltaF/F0 ratio at 12.5 mM by Fluo-4 dye based FLIPR assay; format: functional, cell-based
[8] = target: T1, Taste receptor type 2 member 1 (Homo sapiens); experiment: Activation of full-length human TAS2R1 expressed in HEK293T/Galpha16-gustducin 44 cells assessed as effect on calcium flux by measuring deltaF/F0 ratio at 3.125 mM by Fluo-4 dye based FLIPR assay; format: functional, cell-based
[9] = target: T3, Taste receptor type 2 member 31 (Homo sapiens); experiment: Activation of full-length human TAS2R44 expressed in HEK293T/Galpha16-gustducin 44 cells assessed as effect on calcium flux by measuring deltaF/F0 ratio at 0.7813 mM by Fluo-4 dye based FLIPR assay (reference value: […] +/ - 0.002); format: functional, cell-based
Homo sapiens = species: Homo sapiens; experiment: Induction of bitter sensitivity in bitter sensitive human panelists tasting solution containing 3 mM compound in absence of 13 ppm (E)-4-(2,2,3-trimethylcyclopent-3-enyl)but-2-enoic acid; format: functional, organism-based
[10] = target: T2, Taste receptor type 2 member 10 (Homo sapiens); experiment: Activation of full-length human TAS2R10 expressed in HEK293T/Galpha16-gustducin 44 cells assessed as effect on calcium flux by measuring deltaF/F0 ratio at 25 mM by Fluo-4 dye based FLIPR assay; format: functional, cell-based
[11] = target: T1, Taste receptor type 2 member 1 (Homo sapiens); experiment: Activation of full-length human TAS2R1 expressed in HEK293T/Galpha16-gustducin 44 cells assessed as effect on calcium flux by measuring deltaF/F0 ratio at 0.3906 mM by Fluo-4 dye based FLIPR assay; format: functional, cell-based
[12] = target: T4, Taste receptor type 2 member 46 (Homo sapiens); experiment: Activation of full-length human TAS2R46 expressed in HEK293T/Galpha16-gustducin 44 cells assessed as effect on calcium flux by measuring deltaF/F0 ratio at 3.125 mM by Fluo-4 dye based FLIPR assay; format: functional, cell-based
[13] = target: T3, Taste receptor type 2 member 31 (Homo sapiens); experiment: Activation of full-length human TAS2R44 expressed in HEK293T/Galpha16-gustducin 44 cells assessed as effect on calcium flux by measuring deltaF/F0 ratio at 6.25 mM by Fluo-4 dye based FLIPR assay (reference value: 0.017 +/ - 0.009); format: functional, cell-based
[14] = target: T4, Taste receptor type 2 member 46 (Homo sapiens); experiment: Activation of full-length human TAS2R46 expressed in HEK293T/Galpha16-gustducin 44 cells assessed as effect on calcium flux by measuring deltaF/F0 ratio at 12.5 mM by Fluo-4 dye based FLIPR assay; format: functional, cell-based
[15] = target: T3, Taste receptor type 2 member 31 (Homo sapiens); experiment: Activation of full-length human TAS2R44 expressed in HEK293T/Galpha16-gustducin 44 cells assessed as effect on calcium flux by measuring deltaF/F0 ratio at 12.5 mM by Fluo-4 dye based FLIPR assay (reference value: […] +/ - 0.014); format: functional, cell-based

Question: `OC[C@H]1O[C@H](O[C@]2(CCl)O[C@H](CCl)[C@@H](O)[C@@H]2O)[C@H](O)[C@@H](O)[C@H]1Cl` [SUCRALOSE] was tested. Which Ratio [1] did it give?
Answer: 0.518

Question: And the Ratio [2]?
Answer: 0.05

Question: What about the Ratio [3] of the same compound?
Answer: 0.043

Question: What about the Ratio [4] of the same compound?
Answer: 0.047

Question: What about the Ratio [5] of the same compound?
Answer: 0.106

Question: And the Ratio [6]?
Answer: 0.061

Question: What about the Ratio [7] of the same compound?
Answer: 0.072

Question: And the Ratio [8]?
Answer: 0.059

Question: And the Ratio [9]?
Answer: 0.025

Question: What about the Activity (Homo sapiens) of the same compound?
Answer: Active

Question: And the Ratio [10]?
Answer: 0.087

Question: And the Ratio [11]?
Answer: 0.052

Question: What about the Ratio [12] of the same compound?
Answer: 0.036

Question: And the Ratio [13]?
Answer: 0.059

Question: And the Ratio [14]?
Answer: 0.075

Question: And the Ratio [15]?
Answer: 0.109
